Experimental data: ChEMBL document CHEMBL4265887 (Bioorg Med Chem Lett, 2018)
≈ marks a conversion by molar mass, not a printed value.

Columns and labels:
[1] = biological target: Tyrosine-protein kinase CSK (Homo sapiens) (UniProt P41240); experiment: Inhibition of CSK (unknown origin) at 10 uM
HT-29 [2] = experiment: Synergistic cytotoxicity against human HT-29 cells assessed as reduction in cell viability by measuring combination index at 1:1 compound to dasatinib ratio after 48 hrs by MTT assay; type: functional
[3] = Solubility of the compound in phosphate buffer of pH 2 after 24 hrs by RP-HPLC analysis; type: physicochemical
[4] = biological target: Proto-oncogene tyrosine-protein kinase Src (Homo sapiens) (UniProt P12931); experiment: Inhibition of c-Src (unknown origin) at 10 uM
Proto-oncogene tyrosine-protein kinase Src (Homo sapiens), sequence (P12931 2-536 limits assumed): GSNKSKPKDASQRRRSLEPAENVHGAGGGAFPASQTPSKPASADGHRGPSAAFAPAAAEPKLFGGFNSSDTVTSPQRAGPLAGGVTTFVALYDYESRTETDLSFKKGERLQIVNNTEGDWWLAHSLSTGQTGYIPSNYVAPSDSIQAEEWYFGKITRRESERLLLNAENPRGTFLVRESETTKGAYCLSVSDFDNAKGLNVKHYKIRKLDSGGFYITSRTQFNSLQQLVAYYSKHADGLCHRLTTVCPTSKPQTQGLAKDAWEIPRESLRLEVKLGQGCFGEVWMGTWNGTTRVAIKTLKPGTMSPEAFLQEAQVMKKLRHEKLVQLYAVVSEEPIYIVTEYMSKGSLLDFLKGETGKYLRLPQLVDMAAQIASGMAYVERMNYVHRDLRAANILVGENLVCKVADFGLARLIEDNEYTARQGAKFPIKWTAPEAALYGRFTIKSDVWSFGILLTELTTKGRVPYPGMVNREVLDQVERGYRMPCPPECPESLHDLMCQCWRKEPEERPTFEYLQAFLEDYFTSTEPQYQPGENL

HCT-116 [5] = experiment: Synergistic cytotoxicity against human HCT116 cells assessed as reduction in cell viability by measuring combination index at 1:1 compound to trichostatin A ratio after 48 hrs by MTT assay; type: functional
HT-29 [6] = experiment: Synergistic cytotoxicity against human HT-29 cells assessed as reduction in cell viability by measuring combination index at 1:1 compound to erlotinib ratio after 48 hrs by MTT assay; type: functional
[7] = biological target: Serine/threonine-protein kinase PLK3 (Homo sapiens) (UniProt Q9H4B4); experiment: Inhibition of PLK3 (unknown origin) at 10 uM
Serine/threonine-protein kinase PLK3 (Homo sapiens), sequence (Q9H4B4 whole entry, looked up): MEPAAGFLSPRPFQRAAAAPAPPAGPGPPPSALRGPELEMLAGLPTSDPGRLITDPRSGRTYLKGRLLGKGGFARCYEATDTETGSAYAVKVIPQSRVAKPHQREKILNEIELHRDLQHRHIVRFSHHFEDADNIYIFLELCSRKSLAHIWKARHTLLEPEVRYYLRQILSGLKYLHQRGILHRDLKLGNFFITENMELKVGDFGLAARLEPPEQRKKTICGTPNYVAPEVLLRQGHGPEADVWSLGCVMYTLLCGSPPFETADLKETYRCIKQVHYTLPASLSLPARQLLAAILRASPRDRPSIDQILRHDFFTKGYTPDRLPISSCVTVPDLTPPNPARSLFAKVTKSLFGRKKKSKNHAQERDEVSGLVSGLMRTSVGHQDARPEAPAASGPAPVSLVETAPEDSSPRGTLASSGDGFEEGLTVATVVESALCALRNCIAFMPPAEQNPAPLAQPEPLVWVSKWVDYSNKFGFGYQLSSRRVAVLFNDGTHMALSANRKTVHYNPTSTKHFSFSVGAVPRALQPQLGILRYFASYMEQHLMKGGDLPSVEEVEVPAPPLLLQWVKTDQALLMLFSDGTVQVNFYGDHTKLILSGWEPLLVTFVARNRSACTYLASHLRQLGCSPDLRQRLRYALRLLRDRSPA

Aurora kinase A = biological target: T1, Aurora kinase A (Homo sapiens, UniProt O14965); experiment: Inhibition of recombinant Aurora A (unknown origin) using TAMRA-PKAtide as substrate after 30 mins by fluorescence polarization assay
T1 sequence (O14965 whole entry): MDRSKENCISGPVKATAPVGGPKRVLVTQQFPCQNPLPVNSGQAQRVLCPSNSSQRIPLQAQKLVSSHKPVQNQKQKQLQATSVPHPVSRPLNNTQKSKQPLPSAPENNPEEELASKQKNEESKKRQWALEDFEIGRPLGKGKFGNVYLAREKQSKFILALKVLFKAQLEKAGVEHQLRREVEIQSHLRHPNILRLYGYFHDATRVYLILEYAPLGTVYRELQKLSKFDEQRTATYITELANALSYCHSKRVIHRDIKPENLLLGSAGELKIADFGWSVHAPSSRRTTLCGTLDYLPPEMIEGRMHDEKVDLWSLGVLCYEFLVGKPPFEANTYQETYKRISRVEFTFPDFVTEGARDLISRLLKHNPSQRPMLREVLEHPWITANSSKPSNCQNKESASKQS

[8] = biological target: RAC-alpha serine/threonine-protein kinase (Homo sapiens) (UniProt P31749); experiment: Inhibition of AKT1 (unknown origin) at 10 uM
RAC-alpha serine/threonine-protein kinase (Homo sapiens), sequence (P31749 whole entry): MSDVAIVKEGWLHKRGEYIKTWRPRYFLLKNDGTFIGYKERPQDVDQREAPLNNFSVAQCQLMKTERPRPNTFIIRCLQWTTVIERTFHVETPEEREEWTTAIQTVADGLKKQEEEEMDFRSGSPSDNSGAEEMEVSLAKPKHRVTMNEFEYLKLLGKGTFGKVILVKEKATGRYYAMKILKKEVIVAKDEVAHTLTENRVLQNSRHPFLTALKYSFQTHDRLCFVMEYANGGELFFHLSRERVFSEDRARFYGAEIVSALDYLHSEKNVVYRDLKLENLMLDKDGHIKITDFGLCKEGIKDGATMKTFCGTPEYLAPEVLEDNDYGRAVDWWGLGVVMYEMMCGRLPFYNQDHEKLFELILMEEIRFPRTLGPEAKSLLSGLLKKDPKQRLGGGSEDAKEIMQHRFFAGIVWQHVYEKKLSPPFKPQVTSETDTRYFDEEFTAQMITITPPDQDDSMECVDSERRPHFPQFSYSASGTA

[9] = biological target: Tyrosine-protein kinase JAK3 (Homo sapiens) (UniProt P52333); experiment: Inhibition of JAK3 (unknown origin) at 10 uM
Tyrosine-protein kinase JAK3 (Homo sapiens), sequence (P52333 whole entry): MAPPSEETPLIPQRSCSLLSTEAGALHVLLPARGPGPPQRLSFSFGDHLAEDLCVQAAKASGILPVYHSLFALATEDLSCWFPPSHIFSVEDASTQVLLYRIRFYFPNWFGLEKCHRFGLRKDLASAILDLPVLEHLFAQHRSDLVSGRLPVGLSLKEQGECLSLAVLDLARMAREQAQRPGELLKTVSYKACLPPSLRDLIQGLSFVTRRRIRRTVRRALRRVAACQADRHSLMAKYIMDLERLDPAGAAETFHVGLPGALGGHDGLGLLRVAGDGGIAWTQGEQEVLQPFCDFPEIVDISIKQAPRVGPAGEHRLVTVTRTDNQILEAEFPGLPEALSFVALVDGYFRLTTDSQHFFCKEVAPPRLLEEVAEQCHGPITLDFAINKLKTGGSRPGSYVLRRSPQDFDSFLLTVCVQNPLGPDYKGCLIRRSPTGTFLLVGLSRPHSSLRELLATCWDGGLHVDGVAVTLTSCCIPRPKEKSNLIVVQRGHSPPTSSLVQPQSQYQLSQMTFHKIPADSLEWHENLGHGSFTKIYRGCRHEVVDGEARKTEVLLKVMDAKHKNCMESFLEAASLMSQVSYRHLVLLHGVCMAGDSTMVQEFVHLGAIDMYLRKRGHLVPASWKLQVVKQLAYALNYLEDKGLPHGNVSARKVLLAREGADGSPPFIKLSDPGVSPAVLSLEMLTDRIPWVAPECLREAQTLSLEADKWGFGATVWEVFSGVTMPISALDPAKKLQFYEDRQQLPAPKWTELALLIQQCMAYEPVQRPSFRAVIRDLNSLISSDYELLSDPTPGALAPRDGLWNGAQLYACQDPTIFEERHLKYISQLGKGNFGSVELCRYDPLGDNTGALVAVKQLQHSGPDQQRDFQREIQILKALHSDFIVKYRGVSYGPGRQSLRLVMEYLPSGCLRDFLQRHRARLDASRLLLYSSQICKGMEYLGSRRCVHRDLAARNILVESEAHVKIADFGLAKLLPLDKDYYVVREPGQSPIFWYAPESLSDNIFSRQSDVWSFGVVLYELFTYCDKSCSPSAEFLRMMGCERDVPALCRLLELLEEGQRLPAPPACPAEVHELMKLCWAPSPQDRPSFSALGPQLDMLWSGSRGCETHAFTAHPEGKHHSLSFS

HT-29 [10] = experiment: Synergistic cytotoxicity against human HT-29 cells assessed as reduction in cell viability by measuring combination index at 1:1 compound to GSK2126458 ratio after 48 hrs by MTT assay; type: functional
HCT-116 [11] = experiment: Synergistic cytotoxicity against human HCT116 cells assessed as reduction in cell viability by measuring combination index at 1:1 compound to lonafarnib ratio after 48 hrs by MTT assay; type: functional
[12] = biological target: Death-associated protein kinase 3 (Homo sapiens) (UniProt O43293); experiment: Inhibition of ZIPK (unknown origin) at 10 uM
Death-associated protein kinase 3 (Homo sapiens), sequence (O43293 whole entry, looked up): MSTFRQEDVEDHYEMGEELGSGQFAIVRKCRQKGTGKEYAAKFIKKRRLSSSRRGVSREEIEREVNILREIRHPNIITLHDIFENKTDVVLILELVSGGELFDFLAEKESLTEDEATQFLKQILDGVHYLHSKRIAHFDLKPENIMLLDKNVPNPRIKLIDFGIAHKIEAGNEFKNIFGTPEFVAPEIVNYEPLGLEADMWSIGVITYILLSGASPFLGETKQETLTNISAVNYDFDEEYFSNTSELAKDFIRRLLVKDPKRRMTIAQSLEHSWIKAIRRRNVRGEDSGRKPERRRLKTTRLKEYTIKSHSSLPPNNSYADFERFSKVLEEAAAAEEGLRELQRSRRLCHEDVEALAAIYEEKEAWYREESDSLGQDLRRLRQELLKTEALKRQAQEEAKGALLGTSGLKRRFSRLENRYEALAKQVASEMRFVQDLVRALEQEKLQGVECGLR

[13] = biological target: Receptor tyrosine-protein kinase erbB-2 (Homo sapiens) (UniProt P04626); experiment: Inhibition of ErbB2 (unknown origin) at 10 uM
Receptor tyrosine-protein kinase erbB-2 (Homo sapiens), sequence (P04626 whole entry): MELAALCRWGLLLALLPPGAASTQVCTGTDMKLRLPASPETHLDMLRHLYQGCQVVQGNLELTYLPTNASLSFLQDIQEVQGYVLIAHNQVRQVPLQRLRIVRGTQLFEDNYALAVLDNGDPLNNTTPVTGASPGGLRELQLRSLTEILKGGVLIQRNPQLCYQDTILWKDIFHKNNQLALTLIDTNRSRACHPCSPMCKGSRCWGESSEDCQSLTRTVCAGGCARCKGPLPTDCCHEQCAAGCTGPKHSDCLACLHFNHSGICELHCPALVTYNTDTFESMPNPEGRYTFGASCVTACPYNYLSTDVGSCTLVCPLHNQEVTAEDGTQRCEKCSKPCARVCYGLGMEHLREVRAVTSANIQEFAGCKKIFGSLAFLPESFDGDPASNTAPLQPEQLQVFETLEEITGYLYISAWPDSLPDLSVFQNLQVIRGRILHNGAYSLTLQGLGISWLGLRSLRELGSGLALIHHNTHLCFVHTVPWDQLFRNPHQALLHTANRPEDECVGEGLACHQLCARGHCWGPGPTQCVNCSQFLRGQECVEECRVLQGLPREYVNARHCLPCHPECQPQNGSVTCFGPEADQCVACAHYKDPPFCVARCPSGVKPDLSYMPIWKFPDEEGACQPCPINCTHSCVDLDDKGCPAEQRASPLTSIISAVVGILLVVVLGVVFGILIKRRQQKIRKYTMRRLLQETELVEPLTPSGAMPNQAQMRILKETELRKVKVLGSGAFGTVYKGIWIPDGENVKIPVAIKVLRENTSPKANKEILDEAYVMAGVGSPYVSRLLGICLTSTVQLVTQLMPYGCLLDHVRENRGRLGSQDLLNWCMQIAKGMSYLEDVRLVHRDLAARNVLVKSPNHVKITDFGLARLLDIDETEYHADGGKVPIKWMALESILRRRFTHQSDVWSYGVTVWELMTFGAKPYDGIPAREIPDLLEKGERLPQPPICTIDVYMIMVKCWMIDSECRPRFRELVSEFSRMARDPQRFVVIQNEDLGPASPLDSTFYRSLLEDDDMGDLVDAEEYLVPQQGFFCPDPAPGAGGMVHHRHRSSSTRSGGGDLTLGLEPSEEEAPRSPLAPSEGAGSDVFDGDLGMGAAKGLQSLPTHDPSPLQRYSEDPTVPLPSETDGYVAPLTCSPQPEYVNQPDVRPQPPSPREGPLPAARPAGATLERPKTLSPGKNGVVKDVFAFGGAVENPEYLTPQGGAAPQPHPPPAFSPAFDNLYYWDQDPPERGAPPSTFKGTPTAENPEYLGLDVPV

[14] = biological target: Cyclin-dependent kinase 4/cyclin D1 (Homo sapiens) (UniProt P11802+P24385); experiment: Inhibition of CDK4/Cyclin D1 (unknown origin) at 10 uM; type: protein-complex assay

Tyrosine-protein kinase CSK (Homo sapiens), sequence (P41240 2-450 limits assumed): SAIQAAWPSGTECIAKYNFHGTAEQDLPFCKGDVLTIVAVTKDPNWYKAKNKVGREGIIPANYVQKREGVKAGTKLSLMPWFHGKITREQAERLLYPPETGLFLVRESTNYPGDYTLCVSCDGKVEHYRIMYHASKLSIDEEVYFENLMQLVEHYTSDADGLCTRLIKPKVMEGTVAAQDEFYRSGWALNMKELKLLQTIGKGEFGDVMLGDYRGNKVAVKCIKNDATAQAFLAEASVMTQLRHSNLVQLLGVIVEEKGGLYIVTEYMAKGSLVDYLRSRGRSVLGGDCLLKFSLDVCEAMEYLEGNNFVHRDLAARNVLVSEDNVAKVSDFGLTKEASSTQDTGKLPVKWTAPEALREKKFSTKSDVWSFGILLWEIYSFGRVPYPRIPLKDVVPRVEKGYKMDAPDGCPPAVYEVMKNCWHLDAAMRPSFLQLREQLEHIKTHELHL

- inhibition [1]: 17.3%
- solubility at 24 h [3]: 1.8 µM (≈ 0.815 µg/mL)
- inhibition [4]: 105%
- inhibition [7]: 78.7%
- IC50 (Aurora kinase A): 32 nM
- inhibition [8]: 13.6%
- inhibition [9]: 99.6%
- inhibition [13]: 35.9%
- inhibition [14]: 44.1%
Structure (SMILES): CNC(=O)Nc1sc2c(C(C)C)cc(NS(=O)(=O)c3cccs3)cc2c1C(N)=O
- CI (HT-29 [2]): 0.073
- CI (HCT-116 [5]): 0.195
- CI (HT-29 [6]): 0.075
- CI (HT-29 [10]): 1.044
- CI (HCT-116 [11]): 0.755
- inhibition [12]: 12.9%
